In PubChem BioAssay AID1963837 (Molecular Pharmacology Branch, DTP, NCI, 2024):

Test system: 843126-344-R-J1-PDC complex spheroid viability
Test: Anticancer human tumor 843126-344-R-J1-PDC patient-derived melanoma cell line growth inhibition [POLQ]
Conditions: for IC50: curve of first compound; for viability, T/C: stronger effect = lower value; active means viability on the fitted dose curve at most 10% of control; inactive means the rest
Method in brief: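 Patient-derived tumour cells were co-cultured with HUVEC and mesenchymal stem cells as multicellular spheroids at 37 °C. They were treated with POLQ inhibitors (novobiocin, ART-558, RP6685) alone or combined with other agents. Top concentrations were at or near clinical Cmax (otherwise 10 microM; SN-38 at 1 microM), decreasing in half-log steps.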

[1] = second compound 0.0316 µM, first compound 0.0316 µM
[2] = second compound 0.0316 µM, first compound 0.1 µM
[3] = second compound 0.0316 µM, first compound 0.316 µM
[4] = second compound 0.0316 µM, first compound 1 µM
[5] = second compound 0.0316 µM, first compound 3.16 µM
[6] = second compound 0.0316 µM, first compound 10 µM
[7] = second compound 0.1 µM, first compound 0.0316 µM
[8] = second compound 0.1 µM, first compound 0.1 µM
[9] = second compound 0.1 µM, first compound 0.316 µM
[10] = second compound 0.1 µM, first compound 1 µM
[11] = second compound 0.1 µM, first compound 3.16 µM
[12] = second compound 0.1 µM, first compound 10 µM
[13] = second compound 0.316 µM, first compound 0.0316 µM
[14] = second compound 0.316 µM, first compound 0.1 µM
[15] = second compound 0.316 µM, first compound 0.316 µM
[16] = second compound 0.316 µM, first compound 1 µM
[17] = second compound 0.316 µM, first compound 3.16 µM
[18] = second compound 0.316 µM, first compound 10 µM
[19] = second compound 1 µM, first compound 0.0316 µM
[20] = second compound 1 µM, first compound 0.1 µM
[21] = second compound 1 µM, first compound 0.316 µM
[22] = second compound 1 µM, first compound 1 µM
[23] = second compound 1 µM, first compound 3.16 µM
[24] = second compound 1 µM, first compound 10 µM
[25] = second compound 3.16 µM, first compound 0.0316 µM
[26] = second compound 3.16 µM, first compound 0.1 µM
[27] = second compound 3.16 µM, first compound 0.316 µM
[28] = second compound 3.16 µM, first compound 1 µM
[29] = second compound 3.16 µM, first compound 3.16 µM
[30] = second compound 3.16 µM, first compound 10 µM
[31] = second compound 10 µM, first compound 0.0316 µM
[32] = second compound 10 µM, first compound 0.1 µM
[33] = second compound 10 µM, first compound 0.316 µM
[34] = second compound 10 µM, first compound 1 µM
[35] = second compound 10 µM, first compound 3.16 µM
[36] = second compound 10 µM, first compound 10 µM
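Wherever viability, T/C is given: spheroids exposed to drugs for seven days before readout.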

CC1COCCN1c1cc(C2(S(C)(=N)=O)CC2)nc(-c2ccnc3[nH]ccc23)n1 (stereo unspecified) + Cc1cccc(N(C)C(=O)C2C(O)CCN2c2nc(C)cc(C(F)(F)F)c2C#N)c1
inactive: viability, T/C [1] 102% | viability, T/C [2] 80.2% | viability, T/C [3] 74.1% | viability, T/C [4] 84.5% | viability, T/C [5] 76.2% | viability, T/C [6] 51.1% | viability, T/C [7] 91.3% | viability, T/C [8] 87.6% | viability, T/C [9] 97.2% | viability, T/C [10] 81.5% | viability, T/C [11] 79.3% | viability, T/C [12] 55.8% | viability, T/C [13] 81.6% | viability, T/C [14] 107% | viability, T/C [15] 76.6% | viability, T/C [16] 80.3% | viability, T/C [17] 66.6% | viability, T/C [18] 58.5% | viability, T/C [19] 94.1% | viability, T/C [20] 86.7% | viability, T/C [21] 90.6% | viability, T/C [22] 82.4% | viability, T/C [23] 65.8% | viability, T/C [24] 57.6% | viability, T/C [25] 93.9% | viability, T/C [26] 95.1% | viability, T/C [27] 111% | viability, T/C [28] 83.7% | viability, T/C [29] 78.4% | viability, T/C [30] 54.5% | viability, T/C [31] 81.1% | viability, T/C [32] 70% | viability, T/C [33] 91% | viability, T/C [34] 83.3% | viability, T/C [35] 72.2% | viability, T/C [36] 55.3%
> 10 µM: IC50 (second compound 0.0316 µM) | IC50 (second compound 0.1 µM) | IC50 (second compound 0.316 µM) | IC50 (second compound 1 µM) | IC50 (second compound 3.16 µM) | IC50 (second compound 10 µM)

CC[C@@]1(O)C(=O)OCc2c1cc1n(c2=O)Cc2cc3c(CN(C)C)c(O)ccc3nc2-1 + COC1C(OC(N)=O)C(O)C(Oc2ccc3c(O)c(NC(=O)c4ccc(O)c(CC=C(C)C)c4)c(=O)oc3c2C)OC1(C)C
0.096 µM: IC50 (second compound 0.1 µM)
> 0.1 µM: IC50 (second compound 0.0316 µM) | IC50 (second compound 0.316 µM) | IC50 (second compound 3.16 µM) | IC50 (second compound 10 µM)
inactive: viability, T/C (second compound 0.0316 µM, first compound 0.000316 µM) 94.8% | viability, T/C (second compound 0.0316 µM, first compound 0.001 µM) 89.7% | viability, T/C (second compound 0.0316 µM, first compound 0.00316 µM) 104% | viability, T/C (second compound 0.0316 µM, first compound 0.01 µM) 110% | viability, T/C [1] 57.3% | viability, T/C [2] 52.5% | viability, T/C (second compound 0.1 µM, first compound 0.000316 µM) 95.7% | viability, T/C (second compound 0.1 µM, first compound 0.001 µM) 104% | viability, T/C (second compound 0.1 µM, first compound 0.00316 µM) 123% | viability, T/C (second compound 0.1 µM, first compound 0.01 µM) 91.4% | viability, T/C [7] 78.2% | viability, T/C [8] 48.7% | viability, T/C (second compound 0.316 µM, first compound 0.000316 µM) 114% | viability, T/C (second compound 0.316 µM, first compound 0.001 µM) 99.2% | viability, T/C (second compound 0.316 µM, first compound 0.00316 µM) 91.1% | viability, T/C (second compound 0.316 µM, first compound 0.01 µM) 70.9% | viability, T/C [13] 91.3% | viability, T/C [14] 46.6% | viability, T/C (second compound 1 µM, first compound 0.000316 µM) 84.5% | viability, T/C (second compound 1 µM, first compound 0.001 µM) 83.8% | viability, T/C (second compound 1 µM, first compound 0.00316 µM) 102% | viability, T/C (second compound 1 µM, first compound 0.01 µM) 82.4% | viability, T/C [19] 61.5% | viability, T/C [20] 46.6% | viability, T/C (second compound 3.16 µM, first compound 0.000316 µM) 92.3% | viability, T/C (second compound 3.16 µM, first compound 0.001 µM) 96.3% | viability, T/C (second compound 3.16 µM, first compound 0.00316 µM) 101% | viability, T/C (second compound 3.16 µM, first compound 0.01 µM) 91% | viability, T/C [25] 63.2% | viability, T/C [26] 54% | viability, T/C (second compound 10 µM, first compound 0.000316 µM) 95.5% | viability, T/C (second compound 10 µM, first compound 0.001 µM) 109% | viability, T/C (second compound 10 µM, first compound 0.00316 µM) 110% | viability, T/C (second compound 10 µM, first compound 0.01 µM) 119% | viability, T/C [31] 74.1% | viability, T/C [32] 54%
0.0769 µM: IC50 (second compound 1 µM)

C=CC(=O)N1CCN(c2nc(=O)n(-c3c(C)ccnc3C(C)C)c3nc(-c4c(O)cccc4F)c(F)cc23)C(C)C1 (stereo unspecified) + Nc1ccc(C#CCN(C(=O)Cc2ncc(C(F)(F)F)cc2C(F)(F)F)c2ccc(F)cc2)nn1
> 10 µM: IC50 (second compound 0.0316 µM) | IC50 (second compound 0.1 µM) | IC50 (second compound 0.316 µM) | IC50 (second compound 1 µM) | IC50 (second compound 3.16 µM) | IC50 (second compound 10 µM)
inactive: viability, T/C [1] 105% | viability, T/C [2] 82.8% | viability, T/C [3] 97.3% | viability, T/C [4] 102% | viability, T/C [5] 101% | viability, T/C [6] 84.4% | viability, T/C [7] 104% | viability, T/C [8] 86.1% | viability, T/C [9] 84.9% | viability, T/C [10] 97.8% | viability, T/C [11] 99.2% | viability, T/C [12] 85.6% | viability, T/C [13] 89.3% | viability, T/C [14] 94.9% | viability, T/C [15] 104% | viability, T/C [16] 113% | viability, T/C [17] 94.5% | viability, T/C [18] 85.1% | viability, T/C [19] 101% | viability, T/C [20] 104% | viability, T/C [21] 107% | viability, T/C [22] 94.7% | viability, T/C [23] 104% | viability, T/C [24] 85.4% | viability, T/C [25] 87.5% | viability, T/C [26] 88.7% | viability, T/C [27] 106% | viability, T/C [28] 92.2% | viability, T/C [29] 85.8% | viability, T/C [30] 84.5% | viability, T/C [31] 83.7% | viability, T/C [32] 91.1% | viability, T/C [33] 84.1% | viability, T/C [34] 98.5% | viability, T/C [35] 95.7% | viability, T/C [36] 81.2%
